Entries after “also recorded” stand apart in the source; their conditions may differ.
Experiments:
Format in all cases: cell-based, human
[1] = test system: panel of 20 patient derived cell cultures; experiment: DBD combination treatment, overall result over the panel; settings: Tables 2 and 3, day 5 and day 8, all cultures
Procedure: (§1) Crystalline DBD polymorph treatment was combined with chemotherapy, radiotherapy and targeted inhibitors to determine whether the crystalline DBD polymorph form could: enhance efficacy of the conventional therapies; enhance efficacy when combined with newer ‘targeted’ therapies; or would make (a subset of) cultures more sensitive to this treatment.
(§2) Therefore, cultures were treated with: • a.

[2] = test system: GS186coreNS; experiment: DBD combination treatment, viability enhancement factor; settings: GS186coreNS (p18), labelled therapy combined with crystalline DBD polymorph
Procedure: as §1, §2

[3] = test system: GS281NS; experiment: as above; settings: GS281NS (p15), labelled therapy combined with crystalline DBD polymorph
Procedure: as §1, §2

[4] = test system: GS323periNS; experiment: as above; settings: Day 5; GS323periNS (p20 + p19); labelled therapy combined with crystalline DBD polymorph
Procedure: as §1, §2

[5] = test system: GS324coreNS; experiment: as above; settings: GS324coreNS (p19), labelled therapy combined with crystalline DBD polymorph
Procedure: as §1, §2

[6] = test system: GS245NS; experiment: as above; settings: GS245NS (p16 + p15), labelled therapy combined with crystalline DBD polymorph
Procedure: as §1, §2

[7] = test system: GS359NS; experiment: as above; settings: GS359NS (p15 + p14), labelled therapy combined with crystalline DBD polymorph
Procedure: as §1, §2

[8] = test system: GS365NS; experiment: as above; settings: GS365NS (p17 + p16), labelled therapy combined with crystalline DBD polymorph
Procedure: as §1, §2

[9] = test system: GS203NS; experiment: as above; settings: GS203NS (P19 + p18), labelled therapy combined with crystalline DBD polymorph
Procedure: as §1, §2

[10] = test system: GS289NS; experiment: as above; settings: GS289NS (p15 + p16), labelled therapy combined with crystalline DBD polymorph;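 further: DBD at its own IC50 and half IC50 determined at Day 5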
Procedure: as §1, §2

[11] = test system: GS304NS; experiment: as above; settings: GS304NS (p16), labelled therapy combined with crystalline DBD polymorph
Procedure: as §1, §2

[12] = test system: GS257NS; experiment: as above; settings: GS257NS (p16 + p17), labelled therapy combined with crystalline DBD polymorph;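 further: DBD at its own IC50 and half IC50 determined at Day 5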
Procedure: as §1, §2

[13] = test system: GS279coreNS; experiment: as above; settings: Day 5; GS279coreNS (p12 + p13); labelled therapy combined with crystalline DBD polymorph
Procedure: as §1, §2

[14] = test system: GS184NS; experiment: as above; settings: GS184NS (p18 + p19), labelled therapy combined with crystalline DBD polymorph;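 further: DBD at its own IC50 and half IC50 determined at Day 5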
Procedure: as §1, §2

[15] = test system: GS279periNS; experiment: as above; settings: GS279periNS (p16 + p15), labelled therapy combined with crystalline DBD polymorph;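 further: DBD at its own IC50 and half IC50 determined at Day 5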
Procedure: as §1, §2

[16] = test system: GS186periNS; experiment: as above; settings: GS186periNS (p15), labelled therapy combined with crystalline DBD polymorph
Procedure: as §1, §2

[17] = test system: GS104periNS; experiment: as above; settings: GS104periNS (p21 + p22), labelled therapy combined with crystalline DBD polymorph
Procedure: as §1, §2

[18] = test system: GS224NS; experiment: as above; settings: GS224NS (p17), labelled therapy combined with crystalline DBD polymorph
Procedure: as §1, §2

[19] = test system: GS249NS; experiment: as above; settings: GS249NS (p17), labelled therapy combined with crystalline DBD polymorph
Procedure: as §1, §2

[20] = test system: GS261NS; experiment: as above; settings: GS261NS (p13), labelled therapy combined with crystalline DBD polymorph
Procedure: as §1, §2

[21] = test system: GS102periNS; experiment: as above; settings: GS102periNS (p20 + p21), labelled therapy combined with crystalline DBD polymorph
Procedure: as §1, §2

SMILES | enhancement factor (viability % of most effective monotherapy divided by viability % of combination) ([2]; Day 5) | enhancement factor (viability % of most effective monotherapy divided by viability % of combination) ([2]; Day 8) | enhancement factor (viability % of most effective monotherapy divided by viability % of combination) ([3]; Day 5) | enhancement factor (viability % of most effective monotherapy divided by viability % of combination) ([3]; Day 8) | enhancement factor (viability % of most effective monotherapy divided by viability % of combination) [4] | enhancement factor (viability % of most effective monotherapy divided by viability % of combination) ([5]; Day 5) | enhancement factor (viability % of most effective monotherapy divided by viability % of combination) ([5]; Day 8) | enhancement factor (viability % of most effective monotherapy divided by viability % of combination) ([6]; Day 5) | enhancement factor (viability % of most effective monotherapy divided by viability % of combination) ([6]; Day 8) | enhancement factor (viability % of most effective monotherapy divided by viability % of combination) ([7]; Day 5) | enhancement factor (viability % of most effective monotherapy divided by viability % of combination) ([7]; Day 8) | enhancement factor (viability % of most effective monotherapy divided by viability % of combination) ([8]; Day 5) | enhancement factor (viability % of most effective monotherapy divided by viability % of combination) ([8]; Day 8) | enhancement factor (viability % of most effective monotherapy divided by viability % of combination) ([9]; Day 8) | enhancement factor (viability % of most effective monotherapy divided by viability % of combination) ([10]; Day 5) | enhancement factor (viability % of most effective monotherapy divided by viability % of combination) ([10]; Day 8) | enhancement factor (viability % of most effective monotherapy divided by viability % of combination) ([11]; Day 5) | enhancement factor (viability % of most effective monotherapy divided by viability % of combination) ([11]; Day 8) | enhancement factor (viability % of most effective monotherapy divided by viability % of combination) ([12]; Day 5) | enhancement factor (viability % of most effective monotherapy divided by viability % of combination) ([12]; Day 8) | also measured
Cc1ccc(NC(=O)c2ccc(CN3CCN(C)CC3)cc2)cc1Nc1nccc(-c2cccnc2)n1 [Imatinib] |  |  |  |  |  |  |  |  |  |  |  |  |  |  |  |  |  |  |  |  | enhancement factors overall, in combination with DBD [1]: highest enhancement factors; also recorded: high enhancement factor, most cases
Cc1[nH]c2ccccc2c1CCNCc1ccc(/C=C/C(=O)NO)cc1 [Panobinostat] | 2.557 | 5.363 | 1.480 | 4.353 | 1.656 | 3.192 | 9.253 | 1.129 | 1.202 | 4.343 | 5.512 | 2.914 | 3.253 | 1.651 | 2.519 | 3.535 | 4.406 | 5.405 | 1.643 | 1.590 | enhancement factor (viability % of most effective monotherapy divided by viability % of combination) [13]: 5.962; enhancement factor (viability % of most effective monotherapy divided by viability % of combination) ([14]; Day 5): 1.712; enhancement factor (viability % of most effective monotherapy divided by viability % of combination) ([14]; Day 8): 2.357; enhancement factor (viability % of most effective monotherapy divided by viability % of combination) ([15]; Day 5): 1.943; enhancement factor (viability % of most effective monotherapy divided by viability % of combination) ([15]; Day 8): 5.488; enhancement factor (viability % of most effective monotherapy divided by viability % of combination) ([16]; Day 5): 2.105; enhancement factor (viability % of most effective monotherapy divided by viability % of combination) ([16]; Day 8): 8.116; enhancement factor (viability % of most effective monotherapy divided by viability % of combination) ([17]; Day 5): 1.339; enhancement factor (viability % of most effective monotherapy divided by viability % of combination) ([17]; Day 8): 1.796; enhancement factor (viability % of most effective monotherapy divided by viability % of combination) ([18]; Day 5): 4.399; enhancement factor (viability % of most effective monotherapy divided by viability % of combination) ([18]; Day 8): 7.387; enhancement factor (viability % of most effective monotherapy divided by viability % of combination) ([19]; Day 5): 1.074; enhancement factor (viability % of most effective monotherapy divided by viability % of combination) ([19]; Day 8): 0.944; enhancement factor (viability % of most effective monotherapy divided by viability % of combination) ([20]; Day 5): 1.392; enhancement factor (viability % of most effective monotherapy divided by viability % of combination) ([20]; Day 8): 2.253; enhancement factor (viability % of most effective monotherapy divided by viability % of combination) ([21]; Day 5): 1.591; enhancement factor (viability % of most effective monotherapy divided by viability % of combination) ([21]; Day 8): 3.863
Cn1nnc2c(C(N)=O)ncn2c1=O [TMZ, Temozolomide] | 1.751 | 2.029 | 1.264 | 1.161 | 1.553 | 1.700 | 1.377 | 1.099 | 1.088 | 1.830 | 1.700 | 1.156 | 1.019 | 1.159 | 1.376 | 1.032 | 1.147 | 1.134 | 1.005 | 0.858 | enhancement factor (viability % of most effective monotherapy divided by viability % of combination) ([9]; Day 5): 1.055; enhancement factor (viability % of most effective monotherapy divided by viability % of combination) [13]: 1.440; enhancement factor (viability % of most effective monotherapy divided by viability % of combination) ([14]; Day 5): 1.362; enhancement factor (viability % of most effective monotherapy divided by viability % of combination) ([14]; Day 8): 1.531; enhancement factor (viability % of most effective monotherapy divided by viability % of combination) ([15]; Day 5): 1.162; enhancement factor (viability % of most effective monotherapy divided by viability % of combination) ([15]; Day 8): 1.129; enhancement factor (viability % of most effective monotherapy divided by viability % of combination) ([16]; Day 5): 2.167; enhancement factor (viability % of most effective monotherapy divided by viability % of combination) ([16]; Day 8): 1.220; enhancement factor (viability % of most effective monotherapy divided by viability % of combination) ([17]; Day 5): 1.101; enhancement factor (viability % of most effective monotherapy divided by viability % of combination) ([17]; Day 8): 0.987; enhancement factor (viability % of most effective monotherapy divided by viability % of combination) ([18]; Day 5): 1.335; enhancement factor (viability % of most effective monotherapy divided by viability % of combination) ([18]; Day 8): 1.470; enhancement factor (viability % of most effective monotherapy divided by viability % of combination) ([19]; Day 5): 1.602; enhancement factor (viability % of most effective monotherapy divided by viability % of combination) ([20]; Day 5): 1.271; enhancement factor (viability % of most effective monotherapy divided by viability % of combination) ([20]; Day 8): 1.462; enhancement factor (viability % of most effective monotherapy divided by viability % of combination) ([21]; Day 5): 1.268; enhancement factor (viability % of most effective monotherapy divided by viability % of combination) ([21]; Day 8): 1.309

— patent publication US20220142941A1, “COMBINATION THERAPEUTIC REGIMENS WITH 1,6-DIBROMO-1,6-DIDEOXY-DULCITOL” (Eleison Pharmaceuticals LLC, priority 2019, published 2022)
